Experimental findings from patent US10323038B2, “Pyrazole compounds and methods of making and using same” (ABIDE THERAPEUTICS, INC., priority 2015, dated 2019) are described below.

Molecules are shown by their SMILES.

For one experiment, the target named is MAGL (Mus musculus (Mouse), UniProt O35678). Kind of experiment: In vitro competitive activity-based protein profiling, MAGL (mouse). In kind it is biochemical. As to conditions: for inhibition at 1 µM: read-out: MAGL % inh. 1 μM (mouse). The gist of the method: (§1)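 Gel-based read-out: fluorescence intensity of MAGL and FAAH bands after SDS-PAGE gave serine hydrolase activity. Proteomes at 1.0 mg/mL were pretreated 30 min at 37° C with inhibitor over a concentration range, then labelled 30 min with FP-Rh or HT-01 (stock 50 μM in DMSO).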

The target of the next experiment is FAAH (Mus musculus (Mouse), UniProt O08914). Kind of experiment: In vitro competitive activity-based protein profiling, FAAH (mouse). In kind it is biochemical. To be noted: for inhibition at 1 µM: read-out: FAAH % inh. 1 μM (mouse). The gist of the method:
as §1

Chain of MAGL (O35678 whole entry): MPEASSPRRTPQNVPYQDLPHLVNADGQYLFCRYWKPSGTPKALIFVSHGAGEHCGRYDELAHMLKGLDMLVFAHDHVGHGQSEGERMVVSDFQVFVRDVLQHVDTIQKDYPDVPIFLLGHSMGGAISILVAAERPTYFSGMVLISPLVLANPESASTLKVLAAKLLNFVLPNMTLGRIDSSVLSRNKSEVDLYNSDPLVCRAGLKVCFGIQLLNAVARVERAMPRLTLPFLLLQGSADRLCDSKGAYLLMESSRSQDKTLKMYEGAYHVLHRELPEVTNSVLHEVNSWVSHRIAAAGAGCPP
Chain of FAAH (O08914 whole entry): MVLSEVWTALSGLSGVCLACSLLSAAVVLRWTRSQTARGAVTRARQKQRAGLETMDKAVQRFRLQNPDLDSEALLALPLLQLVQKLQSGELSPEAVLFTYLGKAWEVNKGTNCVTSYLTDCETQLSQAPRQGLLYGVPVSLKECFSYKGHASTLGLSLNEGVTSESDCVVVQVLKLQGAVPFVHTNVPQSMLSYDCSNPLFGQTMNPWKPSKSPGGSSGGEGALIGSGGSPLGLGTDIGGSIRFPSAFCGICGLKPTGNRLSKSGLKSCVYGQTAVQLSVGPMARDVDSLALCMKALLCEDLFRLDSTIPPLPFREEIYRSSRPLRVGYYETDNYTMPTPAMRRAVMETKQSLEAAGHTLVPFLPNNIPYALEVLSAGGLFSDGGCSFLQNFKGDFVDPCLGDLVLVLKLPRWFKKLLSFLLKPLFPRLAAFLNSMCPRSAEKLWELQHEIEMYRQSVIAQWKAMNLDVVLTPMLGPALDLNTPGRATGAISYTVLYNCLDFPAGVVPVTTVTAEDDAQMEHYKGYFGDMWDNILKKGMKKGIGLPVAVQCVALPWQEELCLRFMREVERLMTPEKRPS

As to `CC(=O)N(C)c1cnn(C(=O)N2C[C@H]3C[C@H](N(C)Cc4cc(C(F)(F)F)ccc4N4CCCC4)C[C@H]3C2)c1` [Example 144, N-methyl-N-(1-(trans-5-(methyl(2-(pyrrolidin-1-yl)-5-(trifluoromethyl)benzyl)amino)octahydrocyclopenta[c]pyrrole-2-carbonyl)-1H-pyrazol-4-yl)acetamide], the inhibition at 1 µM on MAGL is no less than 75%; at FAAH, 50 to 75%.
As usually defined, the IC50 is the concentration that gives 50% inhibition. Turning to `CC(=O)N(C)c1cnn(C(=O)N2C[C@H]3C[C@H](N(C)Cc4ccccc4Cl)C[C@H]3C2)c1` [Example 145, N-(1-(trans-5-((2-chlorobenzyl)(methyl)amino)octahydrocyclopenta[c]pyrrole-2-carbonyl)-1H-pyrazol-4-yl)-N-methylacetamide], at MAGL, the IC50 was no more than 100 nM and the inhibition at 1 µM is no less than 75%. In addition, at FAAH, the IC50 was no more than 100 nM and the inhibition at 1 µM was no less than 75%.
Regarding `CC(=O)N(C)c1cnn(C(=O)N2C[C@H]3C[C@H](N(C)Cc4cc(C(F)(F)F)ccc4C(F)(F)F)C[C@H]3C2)c1` [Example 146, N-(1-(trans-5-((2,5-bis(trifluoromethyl)benzyl)(methyl)amino)octahydrocyclopenta[c]pyrrole-2-carbonyl)-1H-pyrazol-4-yl)-N-methylacetamide], the inhibition at 1 µM at MAGL and at FAAH was no less than 75% throughout.
Take `CC(=O)N(C)c1cnn(C(=O)N2C[C@H]3C[C@H](N(C)Cc4cccc(Cl)c4)C[C@H]3C2)c1` [Example 147, N-(1-(trans-5-((3-chlorobenzyl)(methyl)amino)octahydrocyclopenta[c]pyrrole-2-carbonyl)-1H-pyrazol-4-yl)-N-methylacetamide]: on MAGL, the IC50 is no more than 100 nM and the inhibition at 1 µM was no less than 75%. Moreover, at FAAH, the IC50 is no more than 100 nM and the inhibition at 1 µM is no less than 75%.
Take `CC(=O)N(C)c1cnn(C(=O)N2C[C@H]3C[C@@H](N(C)Cc4ccc(N5C6CCC5COC6)cc4C(F)(F)F)C[C@H]3C2)c1` [Example 149, N-(1-(cis-5-((4-(3-oxa-8-azabicyclo[3.2.1]octan-8-yl)-2-(trifluoromethyl)benzyl)(methyl)amino)octahydrocyclopenta[c]pyrrole-2-carbonyl)-1H-pyrazol-4-yl)-N-methylacetamide]: the inhibition at 1 µM at MAGL and on FAAH was no less than 75% in each case.
Take `CC(=O)N(C)c1cnn(C(=O)N2C[C@H]3C[C@@H](N(C)Cc4ccc(N5C6CCC5COC6)c(C(F)(F)F)c4)C[C@H]3C2)c1` [Example 150, N-(1-(cis-5-((4-(3-oxa-8-azabicyclo[3.2.1]octan-8-yl)-3-(trifluoromethyl)benzyl)(methyl)amino)octahydrocyclopenta[c]pyrrole-2-carbonyl)-1H-pyrazol-4-yl)-N-methylacetamide]: the IC50 on MAGL was 100 to 1000 nM; at FAAH it was no more than 100 nM. In addition, the inhibition at 1 µM on MAGL and on FAAH was no less than 75% throughout.
Regarding `CC(=O)N(C)c1cnn(C(=O)N2C[C@H]3C[C@@H](N(C)Cc4cc(N5C6CCC5COC6)cc(C(F)(F)F)c4)C[C@H]3C2)c1` [Example 151, N-(1-(cis-5-((3-(3-oxa-8-azabicyclo[3.2.1]octan-8-yl)-5-(trifluoromethyl)benzyl)(methyl)amino)octahydrocyclopenta[c]pyrrole-2-carbonyl)-1H-pyrazol-4-yl)-N-methylacetamide], at MAGL, the IC50 is 100 to 1000 nM and the inhibition at 1 µM is no less than 75%. On FAAH, the IC50 lay in the range of 100 to 1000 nM and the inhibition at 1 µM is no less than 75%.
With `CC(=O)N(C)c1cnn(C(=O)N2C[C@H]3C[C@@H](N(C)Cc4ccc(N5CCCC5)cc4C(F)(F)F)C[C@H]3C2)c1` [Example 152, N-methyl-N-(1-(cis-5-(methyl(4-(pyrrolidin-1-yl)-2-(trifluoromethyl)benzyl)amino)octahydrocyclopenta[c]pyrrole-2-carbonyl)-1H-pyrazol-4-yl)acetamide], the inhibition at 1 µM on MAGL and on FAAH was no less than 75% throughout.
Take `CC(=O)N(C)c1cnn(C(=O)N2C[C@H]3C[C@@H](N(C)Cc4ccc(N5CCCC5)c(C(F)(F)F)c4)C[C@H]3C2)c1` [Example 153, N-methyl-N-(1-(cis-5-(methyl(4-(pyrrolidin-1-yl)-3-(trifluoromethyl)benzyl)amino)octahydrocyclopenta[c]pyrrole-2-carbonyl)-1H-pyrazol-4-yl)acetamide]: the inhibition at 1 µM at MAGL and on FAAH was no less than 75% in each case.
Turning to `CC(=O)N(C)c1cnn(C(=O)N2C[C@H]3C[C@@H](N(C)Cc4cc(N5CCCC5)cc(C(F)(F)F)c4)C[C@H]3C2)c1` [Example 154, N-methyl-N-(1-(cis-5-(methyl(3-(pyrrolidin-1-yl)-5-(trifluoromethyl)benzyl)amino)octahydrocyclopenta[c]pyrrole-2-carbonyl)-1H-pyrazol-4-yl)acetamide], the inhibition at 1 µM on MAGL and at FAAH was no less than 75% each time.
With `CC(=O)N(C)c1cnn(C(=O)N2C[C@H]3C[C@H](N(C)Cc4ccc(N5C6CCC5COC6)cc4C(F)(F)F)C[C@H]3C2)c1` [Example 155, N-(1-(trans-5-((4-(3-oxa-8-azabicyclo[3.2.1]octan-8-yl)-2-(trifluoromethyl)benzyl)(methyl)amino)octahydrocyclopenta[c]pyrrole-2-carbonyl)-1H-pyrazol-4-yl)-N-methylacetamide], the inhibition at 1 µM at MAGL and at FAAH was no less than 75% each time.
Consider `CC(=O)N(C)c1cnn(C(=O)N2C[C@H]3C[C@H](N(C)Cc4ccc(N5C6CCC5COC6)c(C(F)(F)F)c4)C[C@H]3C2)c1` [Example 156, N-(1-(trans-5-((4-(3-oxa-8-azabicyclo[3.2.1]octan-8-yl)-3-(trifluoromethyl)benzyl)(methyl)amino)octahydrocyclopenta[c]pyrrole-2-carbonyl)-1H-pyrazol-4-yl)-N-methylacetamide], for which, at MAGL, the IC50 is 100 to 1000 nM and the inhibition at 1 µM was no less than 75%. Moreover, on FAAH, the IC50 was no more than 100 nM and the inhibition at 1 µM was no less than 75%.
For the compound `CC(=O)N(C)c1cnn(C(=O)N2C[C@H]3C[C@H](N(C)Cc4cc(N5C6CCC5COC6)cc(C(F)(F)F)c4)C[C@H]3C2)c1` [Example 157, N-(1-(trans-5-((3-(3-oxa-8-azabicyclo[3.2.1]octan-8-yl)-5-(trifluoromethyl)benzyl)(methyl)amino)octahydrocyclopenta[c]pyrrole-2-carbonyl)-1H-pyrazol-4-yl)-N-methylacetamide], the inhibition at 1 µM at MAGL and at FAAH was no less than 75% in each case.
As for `CC(=O)N(C)c1cnn(C(=O)N2C[C@H]3C[C@H](N(C)Cc4ccc(N5CCCC5)cc4C(F)(F)F)C[C@H]3C2)c1` [Example 158, N-methyl-N-(1-(trans-5-(methyl(4-(pyrrolidin-1-yl)-2-(trifluoromethyl)benzyl)amino)octahydrocyclopenta[c]pyrrole-2-carbonyl)-1H-pyrazol-4-yl)acetamide], the inhibition at 1 µM at MAGL and on FAAH was no less than 75% throughout.
Take `CC(=O)N(C)c1cnn(C(=O)N2C[C@H]3C[C@H](N(C)Cc4ccc(N5CCCC5)c(C(F)(F)F)c4)C[C@H]3C2)c1` [Example 159, N-methyl-N-(1-(trans-5-(methyl(4-(pyrrolidin-1-yl)-3-(trifluoromethyl)benzyl)amino)octahydrocyclopenta[c]pyrrole-2-carbonyl)-1H-pyrazol-4-yl)acetamide]: the inhibition at 1 µM on MAGL and at FAAH was no less than 75% in each case.
Regarding `CC(=O)N(C)c1cnn(C(=O)N2C[C@H]3C[C@H](N(C)Cc4cc(N5CCCC5)cc(C(F)(F)F)c4)C[C@H]3C2)c1` [Example 160, N-methyl-N-(1-(trans-5-(methyl(3-(pyrrolidin-1-yl)-5-(trifluoromethyl)benzyl)amino)octahydrocyclopenta[c]pyrrole-2-carbonyl)-1H-pyrazol-4-yl)acetamide], the inhibition at 1 µM at MAGL and on FAAH was no less than 75% throughout.
Regarding `CC(=O)N(C)c1cnn(C(=O)N2C[C@H]3C[C@@H](N(C)Cc4cc(Cl)ccc4C(F)(F)F)C[C@H]3C2)c1` [Example 161, N-(1-(cis-5-((5-chloro-2-(trifluoromethyl)benzyl)(methyl)amino)octahydrocyclopenta[c]pyrrole-2-carbonyl)-1H-pyrazol-4-yl)-N-methylacetamide], on MAGL, the IC50 is no more than 100 nM and the inhibition at 1 µM was no less than 75%. On FAAH, the IC50 is no more than 100 nM and the inhibition at 1 µM is no less than 75%.
As for `CC(=O)N(C)c1cnn(C(=O)N2C[C@H]3C[C@@H](N(C)Cc4cc(Cl)ccc4Cl)C[C@H]3C2)c1` [Example 162, N-(1-(cis-5-((2,5-dichlorobenzyl)(methyl)amino)octahydrocyclopenta[c]pyrrole-2-carbonyl)-1H-pyrazol-4-yl)-N-methylacetamide], the inhibition at 1 µM at MAGL and on FAAH was no less than 75% throughout.
`CC(=O)N(C)c1cnn(C(=O)N2C[C@H]3C[C@@H](N(C)Cc4cc(C(F)(F)F)ccc4Cl)C[C@H]3C2)c1` [Example 163, N-(1-(cis-5-((2-chloro-5-(trifluoromethyl)benzyl)(methyl)amino)octahydrocyclopenta[c]pyrrole-2-carbonyl)-1H-pyrazol-4-yl)-N-methylacetamide]: the inhibition at 1 µM on MAGL and on FAAH was no less than 75% each time.
